Where a name gives a salt, the structure may show the parent alone.

One assay has as its target T1, ACC1 from rat liver (Rattus norvegicus, UniProt P11497).
T1 construct: The livers (for ACC1 preparation) or skeletal muscle tissue (for ACC2 preparation) are removed; from tissue; host or cells: liver of male CD rats (fasted, then fed a high sucrose diet)
Description: Direct inhibition of ACC1 activity (14C-bicarbonate incorporation). The format is biochemical. The conditions noted are these: ACC1 from rat liver. In outline:
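ACC1 partially purified from livers of fasted/sucrose-refed male rats by PEG and ammonium sulfate fractionation, then preincubated 30 min at 37°C with 10 mM citrate and 1.0 mM MgCl2. Reaction ran 7 min at 37°C, stopped with HCl; acid-stable radioactivity counted by scintillation; HCl-first tubes served as blanks.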
Compound `Cc1cc2c(cc1C)C(=O)CC1(CCN(C(=O)c3ccc4[nH]nnc4c3)CC1)O2` [Ex. L37, 1′-(1H-1,2,3-benzotriazol-5-ylcarbonyl)-6,7-dimethylspiro[chromene-2,4′-piperidin]-4(3H)-one] gave an IC50 of 151 nM.
`COC(=O)c1ccc2c(c1)C(=O)CC1(CCN(C(=O)c3cc(C)c4[nH]ncc4c3)CC1)O2` [Ex. A11, methyl 1-[(7-methyl-1H-indazol-5-yl)carbonyl]-4-oxo-3,4-dihydrospiro[chromene-2,4-piperidine]-6-carboxylate] returned an IC50 of 40 nM.
Same read-out and setting: under `Cc1cc2c(cc1Cl)C(=O)CC1(CCN(C(=O)c3cc(Br)cc4cn[nH]c34)CC1)O2` [Ex. J1, 1′-[(5-bromo-1H-indazol-7-yl)carbonyl]-6-chloro-7-methylspiro[chromene-2,4′-piperidin]-4(3H)-one] stands 345 nM; under `CCc1cc(C(=O)N2CCC3(CC2)CC(=O)c2cc(C)c(C)cc2O3)cc2cn[nH]c12` [Ex. C1, 1′-[(7-ethyl-1H-indazol-5-yl)carbonyl]-6,7-dimethylspiro[chromene-2,4′-piperidin]-4(3H)-one], 17.5 nM; under `CCc1nc2cc(C(=O)N3CCC4(CC3)CC(=O)c3ccccc3O4)ccc2n1-c1cccc(OC)c1` [Ex. L30, 1′-{[2-ethyl-1-(3-methoxyphenyl)-1H-benzimidazol-5-yl]carbonyl}spiro[chromene-2,4′-piperidin]-4(3H)-one], 390 nM.
Same read-out and setting: to `O=C(O)c1ccc2c(c1)C(=O)CC1(CCN(C(=O)c3cccc(-c4cc[nH]n4)c3)CC1)O2` [Ex. N1, 4-oxo-1′-[3-(1H-pyrazol-3-yl)benzoyl]-3,4-dihydrospiro[chromene-2,4′-piperidine]-6-carboxylic acid trifluoroacetic acid salt] belongs 891 nM.
In the case of `O=C1CC2(CCN(C(=O)c3ccc4[nH]c5c(c4c3)CCNC5=O)CC2)Oc2ccc(Cl)cc21` [Ex. K3, 6-chloro-1′-[(1-oxo-2,3,4,9-tetrahydro-1H-beta-carbolin-6-yl)carbonyl]spiro[chromene-2,4′-piperidin]-4(3H)-one], the IC50 turned out to be 106 nM.
`Cc1nc2cc(C(=O)N3CCC4(CC3)CC(=O)c3cc(C)c(C)cc3O4)ccc2[nH]1` [Ex. L24, 6,7-dimethyl-1′-[(2-methyl-1H-benzimidazol-5-yl)carbonyl]spiro[chromene-2,4′-piperidin]-4(3H)-one trifluoroacetic acid salt] yielded an IC50 of 825 nM.
The same measure, in the same setting: under `Cc1cc2c(cc1Cl)C(=O)CC1(CCN(C(=O)c3cccc4cn[nH]c34)CC1)O2` [Ex. H5, 6-chloro-1′-(1H-indazol-7-ylcarbonyl)-7-methylspiro[chromene-2,4′-piperidin]-4(3H)-one] stands 321 nM; under `O=C1CC2(CCN(C(=O)c3cc(Cl)c4[nH]ncc4c3)CC2)Oc2cc(Cl)c(F)cc21` [Ex. B10, 7-chloro-1′-[(7-chloro-1H-indazol-5-yl)carbonyl]-6-fluorospiro[chromene-2,4′-piperidin]-4(3H)-one], 209 nM; under `O=C1CC2(CCN(C(=O)c3cc(Cl)c4[nH]ncc4c3)CC2)Oc2ccc(C(F)(F)F)cc21` [Ex. B12, 1′-[(7-chloro-1H-indazol-5-yl)carbonyl]-6-(trifluoromethyl)spiro[chromene-2,4′-piperidin]-4(3H)-one], 257 nM.
On the same count and under the same terms, under `Cc1cc(C(=O)N2CCC3(CC2)CC(=O)c2cc(C(=O)N(C)C)ccc2O3)cc2cn[nH]c12` [Ex. A27, N,N-dimethyl-1′-[(7-methyl-1H-indazol-5-yl)carbonyl]-4-oxo-3,4-dihydrospiro[chromene-2,4′-piperidine]-6-carboxamide] stands 125 nM; under `Cc1cc2c(cc1C)C(=O)CC1(CCN(C(=O)c3ccc4ccn(C)c4c3)CC1)O2` [Ex. L4, 6,7-dimethyl-1′-[(1-methyl-1H-indol-6-yl)carbonyl]spiro[chromene-2,4′-piperidin]-4(3H)-one], 83.3 nM.
Same read-out and setting: under `O=C1CC2(CCN(C(=O)c3cccc4cn[nH]c34)CC2)Oc2ccccc21` stands over 3000 nM.
For `Cc1cc2c(cc1C)C(=O)CC1(CCN(C(=O)c3ccc4c(c3)ncn4C)CC1)O2` [Ex. L23, 6,7-dimethyl-1′-[(1-methyl-1H-benzimidazol-5-yl)carbonyl]spiro[chromene-2,4′-piperidin]-4(3H)-one trifluoroacetic acid salt], inhibition was half-maximal at 1170 nM (IC50).
`COc1c(Cl)ccc2c1C(=O)CC1(CCN(C(=O)c3cccc4cn[nH]c34)CC1)O2` [Ex. H17, 6-chloro-1′-(1H-indazol-7-ylcarbonyl)-5-methoxyspiro[chromene-2,4′-piperidin]-4(3H)-one] displayed an IC50 of 1830 nM.
The compound `Cc1cc(C(=O)N2CCC3(CC2)CC(=O)c2cc(Cl)c(Cl)cc2O3)cc2cn[nH]c12` [Ex. A14, 6,7-dichloro-1′-[(7-methyl-1H-indazol-5-yl)carbonyl]spiro[chromene-2,4′-piperidin]-4(3H)-one] gave an IC50 of 52 nM.
Same read-out and setting: to `Cc1cc2c(cc1C)C(=O)CC1(CCN(C(=O)c3ccc4c(c3)nc(C)n4C)CC1)O2` [Ex. L28, 1′-[(1,2-dimethyl-1H-benzimidazol-5-yl)carbonyl]-6,7-dimethylspiro[chromene-2,4′-piperidin]-4(3H)-one] belongs 3150 nM.
The compound `N#Cc1ccc2c(c1)C(=O)CC1(CCN(C(=O)c3cc(Cl)c4[nH]ncc4c3)CC1)O2` [Ex. B14, 1′-[(7-chloro-1H-indazol-5-yl)carbonyl]-4-oxo-3,4-dihydrospiro[chromene-2,4-piperidine]carbonitrile] returned an IC50 of 331 nM. This IC50 is about 9.5-fold lower than that of the compound before.
On the same count and under the same terms, to `COc1ccc2c(c1)C(=O)CC1(CCN(C(=O)c3ccc4c(C)n[nH]c4c3)CC1)O2` [Ex. F2, 6-methoxy-1′-[(3-methyl-1H-indazol-yl)carbonyl]spiro[chromene-2,4′-piperidin]-4(3H)-one] belongs 49.2 nM.
The same measure, in the same setting: under `Cc1cc2c(cc1Br)C(=O)CC1(CCN(C(=O)c3cccc4cn[nH]c34)CC1)O2` [Ex. H3, 6-bromo-1′-(1H-indazol-7-ylcarbonyl)-7-methylspiro[chromene-2,4′-piperidin]-4(3H)-one] stands 264 nM.

Still in this assay, the particulars now being: Table of Examples M1-M36.
The compound `O=C1CC2(CCN(C(=O)c3cccc(-c4cc[nH]n4)c3)CC2)Oc2ccc(OC(F)(F)F)cc21` [Ex. M13, 1′-[3-(1H-pyrazol-3-yl)benzoyl]-6-(trifluoromethoxy)spiro[chromene-2,4′-piperidin]-4(3H)-one] gave an IC50 of 220 nM.
As to `COC(=O)c1ccc2c(c1)C(=O)CC1(CCN(C(=O)c3cccc(-c4cc[nH]n4)c3)CC1)O2` [Ex. M11, methyl 4-oxo-1′-[3-(1H-pyrazol-3-yl)benzoyl]-3,4-dihydrospiro[chromene-2,4′-piperidine]-6-carboxylate], the half-maximal inhibitory concentration (IC50) was 202 nM.
On the same count and under the same terms, to `O=C1CC2(CCN(C(=O)c3cccc(-c4cc[nH]n4)c3)CC2)Oc2ccc(C(=O)N3CCCC3)cc21` [Ex. M9, 1′-[3-(1H-pyrazol-3-yl)benzoyl]-6-(pyrrolidin-1-ylcarbonyl)spiro[chromene-2,4′-piperidin]-4(3H)-one] belongs 179 nM; to `Cc1ccc2c(c1)C(=O)CC1(CCN(C(=O)c3cccc(-c4cc[nH]n4)c3)CC1)O2` [Ex. M23, 6-methyl-1′-[3-(1H-pyrazol-3-yl)benzoyl]spiro[chromene-2,4′-piperidin]-4(3H)-one], 475 nM; to `O=C1CC2(CCN(C(=O)c3cccc(-c4cc[nH]n4)c3)CC2)Oc2ccc(C(=O)N3CCOCC3)cc21` [Ex. M32, 6-(morpholin-4-ylcarbonyl)-1′-[3-(1H-pyrazol-3-yl)benzoyl]spiro[chromene-2,4′-piperidin]-4(3H)-one], 737 nM.
For `O=C1CC2(CCN(C(=O)c3cccc(-c4cc[nH]n4)c3)CC2)Oc2cc(Cl)cc(Cl)c21` [Ex. M16, 5,7-dichloro-1′-[3-(1H-pyrazol-3-yl)benzoyl]spiro[chromene-2,4′-piperidin]-4(3H)-one], the IC50 worked out at 319 nM. Compared with the last compound, the IC50 is about 2.3-fold lower.
Compound `Cc1cc2c(cc1Cl)OC1(CCN(C(=O)c3cccc(-c4cc[nH]n4)c3)CC1)CC2=O` [Ex. M7, 7-chloro-6-methyl-1′-[3-(1H-pyrazol-3-yl)benzoyl]spiro[chromene-2,4′-piperidin]-4(3H)-one] returned an IC50 of 140 nM. Compared with the last compound, the IC50 is about 2.3-fold lower.

Still in this assay, the particulars now being: Table of Examples P1-P15.
In turn, `Cc1nc(-c2cccc(C(=O)N3CCC4(CC3)CC(=O)c3cc(C)c(C)cc3O4)c2)no1` [Ex. P14, 6,7-Dimethyl-1′-[3-(5-methyl-1,2,4-oxadiazol-3-yl)benzoyl]spiro[chromene-2,4′-piperidin]-4(3H)-one] yielded an IC50 of under 3000 nM.
Still for that read-out and setting: under `Cc1cc2c(cc1C)C(=O)CC1(CCN(C(=O)c3cc(-c4ccn(C)n4)ccc3Cl)CC1)O2` [Ex. P3, 1′-[2-chloro-5-(1-methyl-1H-pyrazol-3-yl)benzoyl]-6,7-dimethylspiro[chromene-2,4′-piperidin]-4(3H)-one] stands under 3000 nM; under `CCOc1ccc(-c2cc[nH]n2)cc1C(=O)N1CCC2(CC1)CC(=O)c1cc(C)c(C)cc1O2` [Ex. P8, 1′-[2-ethoxy-5-(1H-pyrazol-3-yl)benzoyl]-6,7-dimethylspiro[chromene-2,4′-piperidin]-4(3H)-one], 621 nM.
Still for that read-out and setting: to `Cc1cc2c(cc1C)C(=O)CC1(CCN(C(=O)c3cccc(-n4cccn4)c3)CC1)O2` [Ex. P11, 6,7-Dimethyl-1′-[3-(1H-pyrazol-1-yl)benzoyl]spiro[chromene-2,4′-piperidin]-4(3H)-one] belongs 399 nM.
`Cc1cc2c(cc1C)C(=O)CC1(CCN(C(=O)c3cc(-c4cc[nH]n4)ccc3F)CC1)O2` [Ex. P4, 1′-[2-fluoro-5-(1H-pyrazol-3-yl)benzoyl]-6,7-dimethylspiro[chromene-2,4′-piperidin]-4(3H)-one trifluoroacetic acid salt] displayed an IC50 of under 3000 nM.
Still for that read-out and setting: under `Cc1cc2c(cc1Cl)C(=O)CC1(CCN(C(=O)c3cccc(-c4cc(C(F)(F)F)[nH]n4)c3)CC1)O2` [Ex. P2, 6-chloro-7-methyl-1′-{3-[5-(trifluoromethyl)-1H-pyrazol-3-yl]benzoyl}spiro[chromene-2,4′-piperidin]-4(3H)-one trifluoroacetic acid salt] stands 426 nM.

(Values after patent US20090270435A1 (priority 2006, published 2009).)
